In paper PMC11504387, “Synthesis and Biological Activity Assessment of 2-Styrylbenzothiazoles as Potential Multifunctional Therapeutic Agents” (Antioxidants, 2024):
Marks after values point to notes of the source that are not given here.

Key:
[1] = DPPH radical scavenging activity; assay type: biochemical; conditions: mean ± SD; for DPPH Inhibition %: 1 mg/mL
Method: For all the compounds, 0.750 mL of a DMSO-MeOH solution mixed with 1.5 mL of DPPH solution (0.004%) in MeOH was analysed. The samples were kept in the dark at room temperature for 30 min and then analysed with a spectrophotometer by reading the absorbance at 517 nm (lambda max of the absorption spectrum of the DPPH radical). Equation (5) was used to obtain the percentage inhibition (%) of the radical: DPPH radical-scavenging capacity (%) = [1 − (A1 − A2)/A0] × 100%(5) where A2 is the blank (MeOH), and A1 and A0 are, respectively, the recorded absorbances of the sample and control (0.750 MeOH and 1.5 mL DPPH solution), directly proportional to the concentration of residual DPPH. An initial screening was performed by testing all compounds at a concentration of 1 mg/mL (Trolox® was used as the standard); subsequently, compounds showing >90% radical inhibition were further tested to calculate their IC50 value (expressed in µg/mL). Ferulic acid was used as positive control. A linear regression was performed to calculate the sample concentration able to eliminate 50% of DPPH free radicals.

[2] = Ferric reducing antioxidant power (FRAP) test; assay type: biochemical; conditions: Trolox equivalents; mean ± SD
Method: The FRAP test, based on a colorimetric reaction, can assess the ability of a sample to reduce ferric ions to ferrous ions when complexed with 2,4,6-trispiridyl-s-triazine (TPTZ). The FRAP solution consisted of 0.1 M acetate buffer (pH 3.6), 10 mmol/L of TPTZ in 40 mM HCl and a 20 mM solution of FeCl3, in a 10:1:1 ratio. A 1.9 mL volume of the FRAP solution was incubated with 0.1 mL of the sample solution at 37 °C for 10 min. The absorbance was then read with a UV-Vis spectrophotometer at a wavelength of 593 nm, which corresponds to the maximum absorbance peak of the Fe^2+-TPTZ complex. Trolox® was used as a standard, and ferulic acid was used as positive control, and the results are expressed as µmol TE/g.

[3] = tested on: human melanoma Colo38 cells; experiment: Cell growth inhibition assay, Colo38; assay type: cell-based; conditions: for IC50: Homo sapiens, 24 h incubation, mean ± SD; for SI (selectivity index): IC50 HaCat / IC50 Colo38
Method: (§1) Cell growth inhibition analyses were performed on human melanoma Colo38 cells and skin HaCat keratinocytes. Human melanoma Colo38 cells were kindly given by Dr. Patrizio Giacomini (Laboratory of Immunology, Regina Elena Institute, Rome, Italy). HaCat cells were obtained from Istituto Zooprofilattico Sperimentale della Lombardia e dell’Emilia-Romagna, Brescia, Italy. Cells were seeded at 40,000 cells/mL and 25,000 cells/mL, respectively. Colo38 cells were maintained in RPMI 1640, supplemented with 10% foetal bovine serum (FBS), penicillin (100 Units/mL), and streptomycin (100 µg/mL). HaCat cells were maintained in DMEM, supplemented with 10% fatal bovine serum (FBS), penicillin (100 Units/mL), streptomycin (100 µg/mL) and glutamine (2 mM); the incubation was performed at 37 °C in a 5% CO2 atmosphere. Compounds were dissolved in DMSO to obtain 50 mM stock solutions and diluted before cell treatment in MeOH. The tested compounds were added at serial dilutions to the cell cultures (from 0.1 to 100 µM) and incubated for 24 h further. Cells were then harvested, suspended in physiological solution, and counted with a Z2 Coulter Counter (Coulter Electronics, Hialeah, FL, USA). The number of cells/mL and the IC50 values were determined when untreated cells were in the log phase of cell growth. Samples of vehicles and untreated cells were included in each plate. Cisplatin was used as positive control for the HaCat cells, while N1-(4-arylidene)-1H-(2-OH-4-N(Et)2-phenyl)-[d]imidazole-2-carbohydrazide was used as positive control for the Colo38 cell line.

skin HaCat keratinocytes = experiment: Cell growth inhibition assay, HaCat; assay type: cell-based, human; conditions: Homo sapiens, HaCaT; 24 h incubation; mean ± SD
Method: as §1

Human recombinant 5-LO = biological target: T1, Human recombinant 5-LO (Homo sapiens, UniProt P09917); experiment: 5-Lipoxygenase inhibition in a cell-free assay; assay type: biochemical; conditions: for remaining activity at 10 µM: % relative to vehicle (DMSO), read-out: 5-LO Residual Activity (Cell-Free, 10 µM); for IC50: isolated enzyme
T1 construct: made in house
T1 sequence (P09917 1-674): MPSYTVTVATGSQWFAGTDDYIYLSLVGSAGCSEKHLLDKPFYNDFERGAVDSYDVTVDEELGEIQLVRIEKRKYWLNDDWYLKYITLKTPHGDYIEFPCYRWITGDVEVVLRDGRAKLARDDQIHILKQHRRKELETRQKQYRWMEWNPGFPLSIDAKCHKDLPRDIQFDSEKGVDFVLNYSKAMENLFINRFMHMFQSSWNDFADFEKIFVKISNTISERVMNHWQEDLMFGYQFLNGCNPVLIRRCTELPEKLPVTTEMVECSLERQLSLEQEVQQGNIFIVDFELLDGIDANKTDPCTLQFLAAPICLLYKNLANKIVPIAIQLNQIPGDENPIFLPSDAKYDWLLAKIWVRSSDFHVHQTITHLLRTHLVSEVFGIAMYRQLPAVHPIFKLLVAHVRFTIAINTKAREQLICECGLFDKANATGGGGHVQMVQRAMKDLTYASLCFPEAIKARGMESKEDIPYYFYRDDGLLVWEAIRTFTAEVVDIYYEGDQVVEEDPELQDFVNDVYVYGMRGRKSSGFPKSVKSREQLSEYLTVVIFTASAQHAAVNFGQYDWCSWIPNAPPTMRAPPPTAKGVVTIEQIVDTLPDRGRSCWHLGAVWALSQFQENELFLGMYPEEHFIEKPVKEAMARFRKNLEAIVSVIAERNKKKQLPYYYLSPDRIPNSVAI
Method: Human recombinant 5-LO was expressed and isolated as described before, and immediately used for activity assays after isolation. The 5-LO (0.5 µg, in 1 mL PBS pH 7.4 containing 1 mM EDTA) was pre-incubated with the test compounds for 10 min at 4 °C and pre-warmed for 30 s at 37 °C. 5-LO product formation was initiated by sequential addition of 1 mM CaCl2 and 20 μM arachidonic acid. After 10 min at 37 °C, the reaction was terminated by addition of 1 mL ice-cold methanol containing 200 ng PGB1 as internal standard. Formed 5-LO products (trans-LTB4, epi-trans-LTB4, and 5-HETE) were extracted using Sep-Pak C18 35 cc Vac Cartridges and analysed by UPLC-MS/MS as previously described.

| SMILES | DPPH Inhibition % [1] | FRAP [2] [µmolTE/g] | IC50 [3] [µM] | SI (selectivity index) [3] | IC50 (skin HaCat keratinocytes) [µM] | remaining activity at 10 µM (Human recombinant 5-LO) [%] | IC50 (Human recombinant 5-LO) [µM] | DPPH IC50 (sample concentration able to scavenge 50% of the DPPH radical) ([1]; values in brackets) [mg/L] |
| --- | --- | --- | --- | --- | --- | --- | --- | --- |
| C(=C\c1nc2ccccc2s1)/c1ccccc1 [BZTst1, (E)-2-styrylbenzo[d]thiazole] | <LOQ ^b | 331.15 ± 6.29 | 85.6 ± 2.76 | >1.17 | > 100 | 72 ± 20.4 |  |  |
| Oc1ccc(/C=C/c2nc3ccccc3s2)cc1 [BZTst2, (E)-4-(2-(benzo[d]thiazol-2-yl)vinyl)phenol] | 26.70 ± 0.83% | 1122.44 ± 25.14 | 79.8 ± 4.7 | 1.07 | 85.8 ± 17.9 | 47.3 ± 20.2 | 9.26 |  |
| COc1ccc(/C=C/c2nc3ccccc3s2)cc1 [BZTst3, (E)-2-(4-methoxystyryl)benzo[d]thiazole] | <LOQ ^b | 178.71 ± 8.17 | > 100 |  | > 100 | 46.7 ± 28.5 |  |  |
| Oc1ccc(/C=C/c2nc3ccccc3s2)cc1O [BZTst4, (E)-4-(2-(benzo[d]thiazol-2-yl)vinyl)benzene-1,2-diol] | 88.54 ± 0.47% | 5673.33 ± 86.42 | 58.1 ± 12.1 | 1.38 | 80.2 ± 24.7 | 6.85 ± 3.72 | 0.05 | 10.46 ± 0.27 |
| COc1ccc(/C=C/c2nc3ccccc3s2)cc1O [BZTst5, (E)-5-(2-(benzo[d]thiazol-2-yl)vinyl)-2-methoxyphenol] | 46.88 ± 0.60% | 788.09 ± 14.46 | > 100 | <1 | 86 ± 40.7 | 34.8 ± 18.4 |  |  |
| COc1cc(/C=C/c2nc3ccccc3s2)ccc1O [BZTst6, (E)-4-(2-(benzo[d]thiazol-2-yl)vinyl)-2-methoxyphenol] | 18.86 ± 0.11 ^c % | 3262.22 ± 7.86 | 71.5 ± 14.2 | >1.40 | > 100 | 6.84 ± 3.38 | 0.33 |  |
